According to US9103830B2, “Enzyme sensors, methods for preparing and using such sensors, and methods of detecting protease activity” (Georgia State University Research Foundation, Inc., priority 2006, dated 2015):
“Also recorded” adds a separate entry of the source. One block for each compound: values may come before it.

Tests used:
[1] = test system: caspase-3 activation in Hela cells; assay: Fluorescence imaging of Hela cells transfected with caspase-3 sensor, STS induction; assay type: cell-based, human
Protocol: (§1) Hela cells were grown on glass coverslips (0.5-1.0×10^6 cells/dish) in 35 mm culture dishes in Dulbecco's Modified Eagles Medium (DMEM) (Sigma Chemical Co., St. Louis, Mo.) with 44 mM NaHCO3, pH 7.2, and supplemented with 10% (v/v) fetal calf serum (FCS), 100 U/ml penicillin and 0.1 mg/ml streptomycin (Pen/Strep) at 37° C. with 5% CO2 in a humidified incubation chamber. After the cells were seeded and grown overnight, the EGFP-based caspase-3 sensor plasmid was transfected into Hela cells with lipofectamine-2000 (Invitrogen Life Technologies) and serum-free Opti-MEM (Gibco Invitrogen Corporation) according to the manufacturer's instructions. […] The cells were then grown 24 to 48 hours in a humidified chamber with 5% CO2 at 30° C. before fluorescence microscope imaging. […]
Hela cells with transfected EGFP-based caspase-3 sensor were imaged following its expression for 24 or 48 hours. […] Fluorescence imaging of Hela cells with EGFP-wt transfection was used as the control.
The ratiometric change between fluorescence emission for excitation at 398 nm and 488 nm was used to detect caspase-3 activation and inhibition at different time intervals in living cells. Fluorescence for both excitation wavelengths is expected to decrease at 398 nm and produce a corresponding increase at 488 nm during the course of the reaction. The fluorescence intensity of the cells was normalized with equation 2: […]

trypsin [2] = biological target: T1, trypsin (Bos taurus, UniProt P00760); assay: Steady-state kinetics of trypsin digestion of EGFP-based trypsin sensors and BAPNA (absorbance at 490 nm, Michaelis-Menten fit); assay type: biochemical, bovine; conditions: Table 2; 10 mM Tris, 20 mM CaCl2, pH 7.4
T1 construct: Active trypsin is produced only after trypsinogen reaches the small intestine through the common bile duct and is cleaved by enterokinase; purchased Sigma, St. Louis; host or cells: bovine pancreas
T1 sequence (P00760 24-246): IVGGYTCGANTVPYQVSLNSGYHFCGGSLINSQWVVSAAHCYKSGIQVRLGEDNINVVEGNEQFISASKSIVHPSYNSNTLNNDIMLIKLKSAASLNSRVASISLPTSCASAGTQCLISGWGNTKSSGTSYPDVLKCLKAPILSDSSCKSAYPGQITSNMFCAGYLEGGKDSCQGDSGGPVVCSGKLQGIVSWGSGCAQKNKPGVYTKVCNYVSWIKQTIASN
Protocol: Initial rates of trypsin digestion reaction for EGFP-T/C1 with various concentrations were measured using a time-course model to monitor the change of absorbance at 490 nm for 10 min on a UV-1700 spectrometer (Shimadzu, Japan), where the initial rate was equivalent to the resulting slope of absorbance increase.
In order to investigate the kinetic change and to determine the steady-state kinetic parameters kcat, Km, and kcat/Km for hydrolysis of EGFP-based trypsin sensors upon the action of trypsin, initial rates were measured at various EGFP-based trypsin sensor concentrations. The change of absorbance was monitored at 490 nm for 10 min using UV-1700 spectrometer (Shimadzu, Japan) in time-course model and the slope of absorbance increase was determined as the initial rate data. The data were fitted to the Michaelis-Menten equation by nonlinear regression using KaleidaGraph 3.5 software (Synergy software) to obtain the Michaelis constants (Km), turnover numbers (kcat) and specificity constants (kcat/Km).
In order to examine buffer pH effect on trypsin cleavage, kinetic parameters of our designed trypsin sensors were evaluated during trypsin digestion in PIPES buffer (20 mM PIPES, 20 mM CaCl2, pH 6.7) and Tris buffer (10 mM Tris, 20 mM CaCl2, pH 7.4 and pH 8.0), respectively. […]

[3] = test system: caspase-3 activation in MIA PaCa-2 cells; assay: Fluorescence imaging of MIA PaCa-2 cells transfected with caspase-3 sensor, STS induction; assay type: cell-based
From the text: After induction, there was obvious increase in fluorescence of EGFP-EF172cas2 at 398 nm excitation and significant decrease in fluorescence at 488 nm excitation in real time, which results in an increased fluorescence ratio change between 398 and 488 nm, and a corresponding increase in sensitivity for determining the caspase-3 activity in living cells, and an increase in the dynamic range up to 4 for the caspase-3 activity determination. Although there was a slight increase and then decrease in fluorescence of EGFP-wt at both wavelengths after STS induction, the relative fluorescence ratio change was negligible. A possible reason for this would be a change in the cell shape to which increases the fluorescence slightly during the apoptosis. […] Apoptosis is observed in MIA PaCa-2 is a little earlier and stronger than in HeLa cells. There is a huge fluorescence change with excitation at 398 nm in MIA PaCa-2 cells transfected with EGFP-EF172cas2. The cause of this is reasoned to be due to intrinsic high-level caspase-3 activity in MIA PaCa-2 cells and its activity is enhanced by STS induction.

[4] = test system: trypsin activation in MIA PaCa-2 cells; assay: Fluorescence imaging of MIA PaCa-2 cells transfected with trypsin sensor, caerulein activation; assay type: cell-based; conditions: zymogen activation by 10 nM caerulein
Protocol: as §1, with “MIA PaCa-2” for “Hela”, “bovine” for “calf”, “(FBS),” for “(FCS),”, “EGFP-T/C1” for “the EGFP-based caspase-3 sensor plasmid”
MIA PaCa-2 cells with transfected EGFP-T/C1 were imaged following trypsin sensor expression for 24 or 48 hours. […] The ratiometric change between fluorescence emission for excitation at 398 nm and 488 nm was used to detect trypsin activity at different time intervals in the living cells. Fluorescence for both excitation wavelengths is expected to decrease at 398 nm and produce a corresponding increase at 488 nm during the course of reaction. The fluorescence intensity of the cells was normalized with equation 2: […]
The fluorescence ratiometric change (R) is expressed by equation 3: […]

trypsin [5] = biological target: T1, trypsin; assay: Cleavage status after trypsin digestion (SDS-PAGE, MALDI-MS); assay type: biochemical, bovine; conditions: up to 40 hours
Protocol: To examine the cleavage status of the protease sensors (EGFP-T/C1, and EGFP-wt) at different time points, 20 μl of reaction mixtures of 15 μM EGFP variants during trypsin digestion were removed and immediately added SDS sample buffer and boiled to stop the reaction for monitoring by SDS-PAGE at different digestion time intervals (0 min, 5 min, 10 min, 30 min, 60 min, 2 h, 6 h, and 24 h). The samples were loaded on 15% SDS-PAGE to examine the cleavage status of three EGFP variants.
Similarly, after digestion with trypsin, the cleavage status was confirmed using matrix assisted laser desorption/ionization-mass spectrometry (MALDI-MS).
In order to verify the cleavage status of EGFP-based trypsin sensors, the samples during trypsin digestion at various digestion time intervals were examined with 15% SDS-PAGE and MALDI mass spectrometry.

trypsin [6] = biological target: T1, trypsin; assay: Inhibition by leupeptin of trypsin digestion of EGFP-T/C1; assay type: biochemical, bovine
Protocol: In order to examine inhibition effect of leupeptin (Sigma, St. Louis), a trypsin inhibitor, leupeptin at various concentrations (0, 12.5, 25, 50 and 100 nM) was mixed with EGFP-T/C1 and subsequently digested by trypsin at a final concentration of 0.005 μM. The kinetic studies of EGFP-T/C1 with various concentrations were performed at each inhibitor concentration level and the absorbance change at 490 nm was mintored using a time course model. The double reciprocal of initial rates and trypsin sensor concentrations was performed to obtain the plot for confirming inhibition type and calculation of Ki value.
In order to ensure that our developed sensor is able to directly monitor the catalytic step of the enzymatic reaction, we then examined the inhibition effect of leupeptin on trypsin during the digestion of EGFP-T/C1 with various leupeptin concentrations. The rate of the signal change due to cleavage decreases with increasing leupeptin concentrations (FIG. 6A).

Compound: DEVD-CHO
ratio (R398/488) of fluorescence of caspase-3 sensor cells incubated with caspase-3 inhibitor ([1]; Hela cells transfected with EGFP-cas3-1e, inhibitor overnight, then 1 μM STS): no change

kcat (trypsin [2]): 1.33 ± 0.17 s⁻¹
Compound: Cl.N=C(N)NCCCC(NC(=O)c1ccccc1)C(=O)Nc1ccc([N+](=O)[O-])cc1 (racemic) [BAPNA, benzoyl-DL-arginine-4-nitroanilide hydrochloride]

cleavage status upon incubation with trypsin (trypsin [5]): remains intact
Compound: EGFP-wt: enhanced green fluorescent protein, Sequence ID. No. 119; used as the control
fluorescence ratio change [3]: maintains a gradient increase
ratiometric emission change (510 nm emission, excitation 488/398 nm) [4]: remained unchanged
ratio (R398/488) of fluorescence signal change ([1]; Hela cells, 1 μM STS induction, emission 510 nm): no apparent ratiometric change; also recorded: negligible

Compound: CC(=O)N[C@@H](CC(C)C)C(=O)N[C@@H](CC(C)C)C(=O)N[C@H](C=O)CCCNC(=N)N [leupeptin]
inhibition type (trypsin [6]; double reciprocal plot, Enzfitter fit): competitive inhibition
Ki (trypsin [6]; substrate EGFP-T/C1, 0.005 μM trypsin, 10 mM Tris, 20 mM CaCl2, pH 7.4): 31.1 ± 2.3 nM
